# Source: a melting point compilation (Tetko et al.)
row,melting point,SMILES
1,211 °C,O=C(Nc1ccc(Cl)cc1C(O)c1ccccc1)c1ccncc1 (stereo unspecified)
2,142 to 144 °C,Cc1nc(-c2ccccn2)nc(O)c1Cl
3,240 °C,Cn1c(=O)c(C2=NNC(=O)C2=NNc2ccc(Cl)cc2)c(O)c2ccccc21
4,202 °C,NCC(O)CC(=O)O (racemic)
5,42 °C,O=C1CCCCCCCCC1O (stereo unspecified)
6,20.5 °C,N#CC#CC#N
7,-40 °C,CC(=O)OCCN(CCOC(C)=O)CCOC(C)=O
8,107 to 109 °C,N#Cc1cccnc1Cl
9,71 °C,CC1CC(=O)c2cc(F)ccc2O1 (stereo unspecified)
10,141 to 143 °C,COC(=O)c1ccc(N2CCCC2)cc1
11,110 to 113 °C,O=C1OC(C2COC3(CCCCC3)O2)C2OC3(CCCCC3)OC12 (stereo unspecified)
12,126 to 128 °C,CN(C)c1ccccc1-c1ccccc1P(c1ccccc1)c1ccccc1
13,147 to 148 °C,N#CCc1nc(-c2ccc([N+](=O)[O-])cc2)cs1
14,81 to 86 °C,C/C=C/c1ccccc1C(=O)O
15,79 to 81 °C,COC(=O)c1ccc(S(=O)(=O)Cl)n1C
16,95 °C,O=S(=O)(Nc1c(F)c(F)cc(F)c1F)C(F)(F)F
17,192 °C,Cc1cc(NS(=O)(=O)c2ccc(N)cc2)sn1
18,211 to 213 °C,C/C(=N/NC(N)=S)C(=O)Nc1ccccc1
19,69 to 71 °C,N#Cc1ccc2sccc2c1
20,163 °C,BrCC(CBr)(CBr)CBr
21,226 to 227 °C,Cc1c(C(=O)O)cc(-c2ccccc2)n1-c1ccccc1
22,121 °C,Nc1ccc(/C=C\c2ccc(N)cc2)cc1
23,113 °C,Nc1ccc(OCCCCCN2C(=O)c3ccccc3C2=O)cc1
24,45.8 °C,c1ccc(C2=NNCC2)cc1

row,melting point,SMILES
1,265 to 267 °C,c1cc(-c2nnn[nH]2)ccn1
2,300 °C,CC(C)CC(C)(N)C(=O)O (racemic)
3,143 °C,C=C(C(=O)OC1CC(C)=CCCC(CO)=CC2OC(=O)C(=C)C21)C(O)CO (stereo unspecified)
4,-6 °C,O=CCCCC=O
5,86 to 88 °C,N#Cc1ccc2nonc2c1
6,185 to 186 °C,O=C(O)c1ccc(OC2CCOCC2)cc1
7,300 °C,O=[N+]([O-])c1c(O)ncnc1O
8,5.9 °C,CCOC(=O)CCCCCCC(=O)OCC
9,2 to 3 °C,CCOC(=O)c1ccccc1O
10,69 to 72 °C,CCOC(=O)c1cc2cc(Br)ccc2o1
11,144 °C,OCc1cc(CO)cc(OCc2cc(COc3cc(CO)cc(CO)c3)cc(COc3cc(CO)cc(CO)c3)c2)c1
12,14 °C,CCCCCCCCC(C)=O
13,115 to 116 °C,Cc1nc(Cl)c2c(C)c(C)sc2n1
14,89 to 91 °C,Cc1cc(Cl)ccc1Oc1ncccc1[N+](=O)[O-]
15,246 °C,NC1C2CN(c3nc4c(cc3F)c(=O)c(C(=O)O)cn4-c3ccc(F)cc3F)CC12 (stereo unspecified)
16,38.5 °C,CCCCCCCCC(CCCCCCCC)C(=O)O
17,191 to 193 °C,SC1=NN=C(S)NN1
18,200 to 201 °C,CCC(/C(=N/Nc1ccc([N+](=O)[O-])cc1[N+](=O)[O-])c1ccc(OC)cc1)C1CCCCC1 (stereo unspecified)
19,16 °C,CCCCCCCCCCCCN(CCCCCCCCCCCC)CCCCCCCCCCCC
20,31.4 °C,CCCCCCCCCCCCCCCCC(CCC)c1ccccc1 (stereo unspecified)
21,157 to 159 °C,O=C(O)[C@@H](O)CCN1C(=O)c2ccccc2C1=O
22,61 °C,CCOC(C/N=C/c1cccc(/C=N/CC(OCC)OCC)c1)OCC
23,112 to 117 °C,O=C(Cc1ccccc1)c1ccc(O)cc1O
24,150 °C,CC(NC(CCc1ccccc1)C(=O)O)C(=O)N1CCCC1C(=O)O (stereo unspecified)

row,melting point,SMILES
1,101 to 103 °C,Cc1nc(-c2ccccc2)ncc1C=O
2,164 °C,O=C(CNc1cccc(NCC(=O)c2ccccc2)c1)c1ccccc1
3,108 °C,Cc1cc(CC(C)CC(C)(C)C)n(O)c(=O)c1 (stereo unspecified)
4,240 °C,O=C(Nc1ccccc1)c1nn(-c2ccccc2)c(-c2ccc([N+](=O)[O-])cc2)c1S(=O)(=O)c1ccccc1
5,132 to 135 °C,Cn1nc(-c2ccccc2)cc1N
6,123 to 125 °C,Cc1nn(-c2ccccc2)nc1C(=O)NN
7,239 °C,c1ccc(-c2ccc(-c3cnc(-c4ccc(-c5ccccc5)cc4)o3)cc2)cc1
8,64 °C,Clc1ccc2nccnc2c1
9,321 °C,COc1ccc(C=C(C#N)C(N)=O)cc1
10,240 to 255 °C,Oc1cc(O)nc(S)n1
11,129 °C,N#CC(=NO)c1ccccc1
12,47 °C,CC(C)(C)OC(=O)N1CCC(C#N)CC1
13,215 to 220 °C,O=C1OS(=O)(=O)c2c(Br)c(Br)c(Br)c(Br)c21
14,73 to 74 °C,FC(F)(F)c1cc(C(F)(F)F)c(C(F)(F)F)cc1C(F)(F)F
15,73 to 76 °C,COc1ccc(C(=O)c2cccs2)cc1
16,-57.8 °C,C1CCNC1
17,144 °C,Cc1ccccc1N/N=C(\C#N)c1nc(-c2ccccc2)cs1
18,80 to 81 °C,O=C(Cl)c1ccc(Oc2ccccn2)cc1
19,-92.8 °C,CCCCOC(=O)CCCC
20,207 °C,CCOC(=O)NNC(=O)Nc1ccc(Cl)c(Cl)c1
21,202 to 204 °C,Nc1c(C(=O)O)sc2ncccc12
22,139 to 140 °C,O=Cc1c(Br)sc2ccc(Cl)cc12
23,-30.6 °C,CCCCCCCC(=O)OCCCCCC
24,128 °C,CC(c1ncncc1F)C(O)(Cn1cncn1)c1ccc(F)cc1F (stereo unspecified)

row,melting point,SMILES
1,-24 °C,CCOC(=O)CCCCCC(=O)OCC
2,126 °C,Cc1ccc(S(=O)(=O)NCCCN(CCCN(CCCNS(=O)(=O)c2ccc(C)cc2)S(=O)(=O)c2ccc(C)cc2)S(=O)(=O)c2ccc(C)cc2)cc1
3,258 °C,CC12CCc3c(ccc4cc(O)ccc34)C1CCC2=O (stereo unspecified)
4,141 to 143 °C,C(=C\c1nn2c(COc3ccccc3)nnc2s1)/c1ccccc1
5,88 °C,CNC(=S)NCO
6,145 to 150 °C,NC(=S)c1cc(Cl)nc(Cl)c1
7,-24 °C,CCc1ccc(Cc2ccccc2)cc1
8,205 to 206 °C,CC(C)=C/C=C/C=N/Nc1ccc([N+](=O)[O-])cc1[N+](=O)[O-]
9,210 °C,C=CCN1C(=O)C(CC(C)C)NC1=S (stereo unspecified)
10,105 °C,COc1ccc(O)c(F)c1F
11,124 °C,COc1ccccc1CC(=O)O
12,235 to 240 °C,O=C(O)c1cc(O)cc(O)c1
13,223 °C,Cn1[nH]c([N+](=O)[O-])c2c(=O)ccnc1-2
14,71 °C,CC1CN(C2CCCCCCCCCCC2)CC(C)O1 (stereo unspecified)
15,280 to 282 °C,Clc1ccc(C=NNc2ncnc3c2cnn3-c2ccccc2)cc1
16,189 °C,COc1cc(C=O)ccc1OC1OC(CO)C(O)C(O)C1O (stereo unspecified)
17,262 to 264 °C,NCC(=O)NCC(=O)O
18,178 °C,CCOC(=O)C1=Nc2cc3c(cc2=C1OC(C)=O)C(OC(C)=O)=C(C(=O)OCC)N=3
19,114 to 119 °C,c1ccc(-c2sc(-c3ccccc3)c3ccccc23)cc1
20,100 to 105 °C,CSC(=NS(=O)(=O)c1ccc(Br)cc1)SC
21,70 °C,BrCc1cccc(-c2ccsc2)c1
22,150 °C,CC(C)C1=CCC2C(=C1)CCC1C(C)(C(=O)O)CCCC21C (stereo unspecified)
23,-50 °C,CCCCCN
24,47 °C,CC(C)c1cccc(O)c1O

row,melting point,SMILES
1,95 to 96 °C,Cc1nc(-c2cccc(N)c2)no1
2,266 °C,CC(=O)Oc1c(-c2ccccc2)[nH]c2cc(N)c(/C=C/c3ccccc3)cc12
3,161 °C,CCOC(=O)CCC(C)C1CCC2C3C(=O)CC4CC(O)CCC4(C)C3CC(O)C12C (stereo unspecified)
4,155 °C,O=c1cc(C(F)(F)F)n2nc(-c3ccc(Cl)cc3)cc2[nH]1
5,113 °C,O=C(CCCCl)c1ccc(O)cc1
6,78.5 °C,Sc1nccs1
7,195 °C,NC(=O)c1ncccc1O
8,315 °C,CCn1cc(C(=O)O)c(=O)c2cnc(N3CCCC3)nc21
9,157 to 158 °C,Cc1ccc(Sc2ccc([N+](=O)[O-])cc2C=O)cc1
10,62 to 64 °C,CC(=O)c1c(-c2cccc(Cl)c2Cl)noc1C
11,100 °C,CC(=O)c1occc1O
12,220 to 222 °C,CC(C)(C)CC(=O)C=C1Nc2ccccc2NC1=CC(=O)CC(C)(C)C
13,360 °C,Nc1cc(C(=O)O)cc(C(=O)O)c1
14,220 °C,O=C(O)CN=C(S)C(=S)NCC(=O)O
15,125 °C,O=C(c1ccc(Cl)cc1)c1noc(-c2ccc(Br)cc2)c1S(=O)(=O)c1ccccc1
16,114 °C,CCOCC1C(=O)C2(C)CCC1C2(C)C (stereo unspecified)
17,31 °C,Cn1ccccc1=O
18,260 to 266 °C,Nc1ccc(N=O)c(N)n1
19,157 °C,N#CN=C(Oc1ccccc1)Oc1ccccc1
20,26 °C,CCC(=O)c1cc(F)cc(F)c1

row,SMILES,melting point
1,CC12C(=O)OC(=O)C1(C)C1CCC2O1 (stereo unspecified),218 °C
2,O=c1c2cc(F)ccc2nc(-n2cncn2)n1-c1ccc(Cl)cc1Cl,192 °C
3,Cc1ccccc1CP(=O)(O)O,195 to 196 °C
4,O=[N+]([O-])c1cc(O)ccc1Cl,127 °C
5,C=CCN(CC=C)C(=O)CCl,25 °C
6,O=C(Cl)c1cnccn1,150 °C
7,Nc1ccncc1Cl,51 °C
8,CCCBr,-110 °C
9,ClCCOCOCCCl,-32 °C
10,c1ccc2c3c(ccc2c1)-c1cccc2cccc-3c12,166 °C
11,NCCN(CCN)N(O)N=O,98 to 106 °C
12,c1cc(OCC2CO2)cc(OCC2CO2)c1 (stereo unspecified),42.5 °C
13,c1ccc(-c2cccc(-c3ccccc3)c2)cc1,87 °C
14,CC(=O)c1ccc(N2CCNCC2)cc1,107 to 110 °C
15,CC1C2Cc3ccc(O)cc3C1(C)CCN2CCc1ccccc1 (stereo unspecified),181 °C
